Columns and labels:
Type in all cases: cell-based
[1] = system: NCIH510A (SCLC) cell line; experiment: Cell viability of NF1-mutant tumor cell line NCIH510A (MTT or AlamarBlue); conditions: 10 days treatment; for EC50: Homo sapiens, NCI-H510A, 240 h, NF1 p. D2184G/p. L2618L
Method: (§1) Mycoplasma-free tumor cell lines from different tumor types carrying mutations in the NF1 gene (see Table 1) were seeded in 50 μl/well of complete medium (as described in Table 2, all reagents from Thermo Fisher) in 96-well plates at the optimal cell density to ensure log-phase growth throughout the duration of the experiment (see Table 2). The day after seeding, 50 μl of medium containing 9 serial dilutions (1:3) of 2×-concentrated iadademstat (LSD1 inhibitor; used as the dihydrochloride salt) were added to the cells to obtain 100 μl of cells treated with 1×-concentrated compound at each dilution. Additionally, the effect of other LSD1 inhibitors, i.e. bomedemstat (bis-tosylate salt) and pulrodemstat (besylate salt), was likewise evaluated in a subset of these tumor cell lines (sNF96.2, sNF02.2, MOLM13 and NCIH510A).
(§2) Each experimental condition was tested in technical triplicates, including medium-only wells and vehicle-treated controls for background correction and normalization, respectively. After treatment, cells were incubated at 37° C. in a humidified and controlled 5% CO2 atmosphere (see Table 2 for duration of treatment according to the growth curve of each cell line and number of cells seeded) and compound and medium refreshment was performed by adding 50 μl of medium supplemented with 1×-concentrated compound at each corresponding dilution when the duration of the treatment exceeded 4 days of drug incubation (see Table 2). After treatment, cell viability was evaluated using either the MTT assay (Sigma-Aldrich) or AlamarBlue™ Cell viability reagent (Life Technologies), following manufacturer's instructions. Background was calculated as the mean of the values of medium-only controls and subtracted from each data point. The average of background-corrected technical triplicates was calculated and normalized by the mean of vehicle-treated controls (corresponding to 100% of viability). Data were analyzed using GraphPad PRISM® version 9.0.1 (GraphPad Software, Inc., La Jolla, CA/USA) to calculate the best-fitting curves and the EC50 values (corresponding to the concentration of compound at which a half (50%) maximal effect is obtained; lower EC50 values thus indicate greater potency).

[2] = system: hTERT ipnNF95.11c (plexiform neurofibroma) cell line; experiment: Cell viability of NF1-mutant tumor cell line hTERT ipnNF95.11c (MTT or AlamarBlue); conditions: 7 days treatment
Method: as §1
(§3) Each experimental condition was tested in technical triplicates, including medium-only wells and vehicle-treated controls for background correction and normalization, respectively. […] After treatment, cell viability was evaluated using either the MTT assay (Sigma-Aldrich) or AlamarBlue™ Cell viability reagent (Life Technologies), following manufacturer's instructions. Background was calculated as the mean of the values of medium-only controls and subtracted from each data point. […]

[3] = system: sNF96.2 (MPNST) cell line; experiment: Cell viability of NF1-mutant tumor cell line sNF96.2 (MTT or AlamarBlue); conditions: 6 days treatment
Method: as §1, §3

MOLT4 (ALL) cell line = experiment: Cell viability of NF1-mutant tumor cell line MOLT4 (MTT or AlamarBlue); conditions: 10 days treatment
Method: as §1, §3

MOLM13 (AML) cell line = experiment: Cell viability of NF1-mutant tumor cell line MOLM13 (MTT or AlamarBlue); conditions: 4 days treatment; for EC50: Homo sapiens, MOLM-13, 96 h, NF1 p. E1720D
Method: as §1, §2

[4] = system: A204 (rhabdoid tumor) cell line; experiment: Cell viability of NF1-mutant tumor cell line A204 (MTT or AlamarBlue); conditions: 6 days treatment
Method: as §1, §3

[5] = system: MPNST-NF1-18b (MPNST) cell line; experiment: Cell viability of NF1-mutant tumor cell line MPNST-NF1-18b (MTT or AlamarBlue); conditions: 6 days treatment
Method: as §1, §3

[6] = system: hTERT ipNF95.11b C (plexiform neurofibroma) cell line; experiment: Cell viability of NF1-mutant tumor cell line hTERT ipNF95.11b C (MTT or AlamarBlue); conditions: 7 days treatment
Method: as §1, §3

[7] = system: sNF02.2 (MPNST) cell line; experiment: Cell viability of NF1-mutant tumor cell line sNF02.2 (MTT or AlamarBlue); conditions: 6 days treatment; for EC50: 144 h, NF1 c. 4868A > T
Method: as §1, §2

[8] = system: MDAMB231 (TN breast cancer) cell line; experiment: Cell viability of NF1-mutant tumor cell line MDAMB231 (MTT or AlamarBlue); conditions: 4 days treatment
Method: as §1, §3

[9] = system: MHHES1 (Ewing's sarcoma) cell line; experiment: Cell viability of NF1-mutant tumor cell line MHHES1 (MTT or AlamarBlue); conditions: 6 days treatment
Method: as §1, §3

[10] = system: TC71 (Ewing's sarcoma) cell line; experiment: Cell viability of NF1-mutant tumor cell line TC71 (MTT or AlamarBlue); conditions: 6 days treatment
Method: as §1, §3

[11] = system: DAUDI (Burkitt's lymphoma) cell line; experiment: Cell viability of NF1-mutant tumor cell line DAUDI (MTT or AlamarBlue); conditions: 4 days treatment
Method: as §1, §3

[12] = system: RD (rhabdomyosarcoma) cell line; experiment: Cell viability of NF1-mutant tumor cell line RD (MTT or AlamarBlue); conditions: 6 days treatment
Method: as §1, §3

NCIH446 (SCLC) cell line = experiment: Cell viability of NF1-mutant tumor cell line NCIH446 (MTT or AlamarBlue); conditions: 10 days treatment
Method: as §1, §3

## N[C@H]1CC[C@H](N[C@@H]2C[C@H]2c2ccccc2)CC1 [Iadademstat, (trans)-N1-((1R,2S)-2-phenylcyclopropyl)cyclohexane-1,4-diamine]
[1]
  Response (classification according to viability reduction): Strong (strong response (viability reduction>30%))
  EC50: 0.16 nM
[2]; 168 h, NF1 c. 1756delACTA
  EC50: 0.841 nM
[2]
  Response (classification according to viability reduction): Strong (strong response (viability reduction>30%))
[3]; 144 h, NF1 c. 3683delC + LOH
  EC50: 0.042 nM
[3]
  Response (classification according to viability reduction): Strong (strong response (viability reduction>30%))
MOLT4 (ALL) cell line
  Response (classification according to viability reduction): Strong (strong response (viability reduction>30%))
MOLT4 (ALL) cell line; Homo sapiens, MOLT-4, 240 h, NF1 p. G1502G/ NS
  EC50: 0.795 nM
MOLM13 (AML) cell line
  Response (classification according to viability reduction): Strong (strong response (viability reduction>30%))
  EC50: 0.158 nM
[4]
  Response (classification according to viability reduction): Strong (strong response (viability reduction>30%))
[4]; Homo sapiens, 144 h, NF1 p. L1274F
  EC50: 0.1 nM
[5]; 144 h, NF1 SNV at intron 14 + LOH
  EC50: 0.025 nM
[5]
  Response (classification according to viability reduction): Strong (strong response (viability reduction>30%))
[6]; 168 h, NF1 c. 1756delACTA/ LOH
  EC50: 0.14 nM
[6]
  Response (classification according to viability reduction): Medium (medium response (viability reduction>15% and <30%))
[7]
  EC50: 0.02 nM
  Response (classification according to viability reduction): Medium (medium response (viability reduction>15% and <30%))
[8]
  Response (classification according to viability reduction): Low (low response (viability reduction<15%))
[9]
  Response (classification according to viability reduction): Low (low response (viability reduction<15%))
[10]
  Response (classification according to viability reduction): Low (low response (viability reduction<15%))
[11]
  Response (classification according to viability reduction): Low (low response (viability reduction<15%))
[12]
  Response (classification according to viability reduction): Low (low response (viability reduction<15%))
NCIH446 (SCLC) cell line
  Response (classification according to viability reduction): Low (low response (viability reduction<15%))

## COc1ccc(-c2c(-c3ccc(C#N)c(F)c3)nc(N3CCC(N)CC3)n(C)c2=O)cc1F [Pulrodemstat, 4-[2-(4-aminopiperidin-1-yl)-5-(3-fluoro-4-methoxyphenyl)-1-methyl-6-oxo-1,6-dihydropyrimidin-4-yl]-2-fluorobenzonitrile]
[1]
  EC50: 1.73 nM
MOLM13 (AML) cell line
  EC50: 0.82 nM
[7]
  EC50: 0.166 nM

## CN1CCN(C(=O)[C@H](CCCN[C@@H]2C[C@H]2c2ccc(F)cc2)NC(=O)c2ccc(-n3ccnn3)cc2)CC1 [Bomedemstat, N-[(2S)-5-{[(1R,2S)-2-(4-fluorophenyl)cyclopropyl]amino}-1-(4-methylpiperazin-1-yl)-1-oxopentan-2-yl]-4-(1H-1,2,3-triazol-1-yl)benzamide]
[1]
  EC50: 10.5 nM
MOLM13 (AML) cell line
  EC50: 5.38 nM
[7]
  EC50: 0.094 nM
